Test results reported in patent US9505798B2, “Steroid compounds as RORyt modulators and uses thereof” (New York University, priority 2010, dated 2016).

What was measured:
[1] = target: T1, mouse RORγt (Mus musculus, UniProt P51450); assay: Drosophila S2 cell RORγt luciferase reporter; assay type: cell-based; conditions: for effect on RORγ transcriptional activity: S2 reporter system
T1 construct: mouse RORγt (amino acids 79 to the carboxyl terminal end); expressed in transfected cells
T1 sequence (P51450 79-495 isoform P51450-2): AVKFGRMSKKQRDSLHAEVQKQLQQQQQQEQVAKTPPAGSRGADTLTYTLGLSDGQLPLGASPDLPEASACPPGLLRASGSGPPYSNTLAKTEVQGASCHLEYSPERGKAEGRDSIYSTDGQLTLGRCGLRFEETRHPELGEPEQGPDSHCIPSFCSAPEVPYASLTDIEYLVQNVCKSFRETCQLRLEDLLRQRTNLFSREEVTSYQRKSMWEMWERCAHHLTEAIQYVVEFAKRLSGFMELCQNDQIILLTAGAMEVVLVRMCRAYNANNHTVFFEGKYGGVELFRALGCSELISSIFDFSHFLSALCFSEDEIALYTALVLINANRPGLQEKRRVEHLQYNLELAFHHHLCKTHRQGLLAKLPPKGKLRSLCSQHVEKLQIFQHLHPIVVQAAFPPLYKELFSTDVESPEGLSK
Text: The Drosophila S2 cell line was originally purchased from Invitrogen and was maintained in Schneider's medium supplemented with 10% heat-inactivated bovine fetal calf serum and antibiotics (Invitrogen). […] The resulting chimeric gene was subcloned into the copper inducible pMT/V5-His A vector (Invitrogen). […] Coding sequences for firefly luciferase (Promega) were PCR amplified and subcloned into pUAST vector containing Gal4 binding enhancer sequences. Renilla luciferase construct under the polIII promoter was obtained from Dr. Dasgupta's laboratory (NYU medical center). In order to generate stable cell lines, cells were co-transfected with pMT-G4 DBD-RORγt, pMT-G4 DBD-RORα, pMT-G4 DBD-DHR3, or pMT-G4 DBDVP16 and pHygro plasmids (Invitrogen) and screened for resistant colonies in the presence of hygromycin (0.3 mg/mL). […] Using similar methods, stable clones with genomic integration of the luciferase reporters and other reporters were generated such as pMT-RORα_luc, pMT-DHR3_Luc, or pMT-VP16_luc.
(§1) The following representative compounds are tested for their RORγt inhibitory activity and toxicity.
Promega Dual-Glo system is widely used for HTS as the luciferase substrates. Cell culture medium was reduced to the final volume of 10 μl or less and 10 μl of Dual-glo and 10 μl of Stop-glo luciferase substrates were added in a sequencial manner (Promega). Firefly and Renilla luciferase activity was determined by measuring luminescence signals using an automated 384-well plate reader equipped with multiple stack units (such as the Analyst GT or Envision plate readers).
10,000 Drosophila stable S2 cells with genomic integration of the Cu2+-inducible G4 DBD-mouse RORγ construct were transfected with 5 ng of pUASTfirefly luciferase and 7 ng of Pol III-Renilla luciferase and dispensed into white bottom-tissue culture 384-well plates (Corning). […] The following morning, Stop-glo luciferase substrates (Promega) were used to measure luciferase activity.
The Drosophila S2 cell line was originally purchased from Invitrogen and was maintained in Schneider's Drosophila medium supplemented with 10% heat-inactivated bovine fetal calf serum and 1× antibiotic-antimycotic solution (Invitrogen). […] The resulting chimeric gene was subcloned into the copper inducible pMT/V5-His A vector (Invitrogen) and into the constitutive pAc vector. […] Coding sequences for firefly luciferase (Promega) were PCR amplified and subcloned into the pUAST vector containing five Gal4 binding enhancer sequences. The Renilla luciferase construct under a pol III promoter and the pAc vector were obtained from R. Dasgupta (NYU School of Medicine). To generate cell lines stably expressing various chimeric proteins upon copper addition, S2 cells were co-transfected with pMT plasmids encoding individual G4 DBD chimeric constructs and the pCoHygro plasmid (Invitrogen), before screening for resistant colonies in the presence of hygromycin (0.3 mg/mL). […] The human androgen receptor (hAR) expression plasmid pMK33-hAR and its reporter TAT3-Luc were obtained from M. Garabedian (NYU School of Medicine). […] R1881 (10 nM) and Dafachronic acid (10 μM) were used as ligands for hAR and Daf12. Upon treatment of cells with copper, in 384 well plates, there was specific increase in firefly luciferase activity versus normalized Renilla luciferase activity for all cell lines described above, validating the method for high-throughput screen.
Transfections of firefly and Renilla reporter constructs were performed using the Effectene kit from Qiagen according to the manufacturer's protocol with some modifications.

[2] = test system: human embryonic kidney 293t cell lines; assay: Toxicity on human embryonic kidney 293T cells
Procedure: as §1

[3] = test system: Na+/K+-ATPase; conditions: compared with digoxin; cited from earlier work
[4] = target: T2, human RORγt (Homo sapiens, UniProt P51449); assay: IL-17a induction in human CD4+ T cells transduced with RORαd, RORβ or RORγt; assay type: cell-based; conditions: 10 μM, FIG. 3b
T2 construct: expressed in transfected cells; host or cells: human CD4+ T cells (cord blood or adult blood), lentiviral HDV-IRES-GFP/HSA vectors
T2 sequence (P51449 1-497 isoform P51449-2): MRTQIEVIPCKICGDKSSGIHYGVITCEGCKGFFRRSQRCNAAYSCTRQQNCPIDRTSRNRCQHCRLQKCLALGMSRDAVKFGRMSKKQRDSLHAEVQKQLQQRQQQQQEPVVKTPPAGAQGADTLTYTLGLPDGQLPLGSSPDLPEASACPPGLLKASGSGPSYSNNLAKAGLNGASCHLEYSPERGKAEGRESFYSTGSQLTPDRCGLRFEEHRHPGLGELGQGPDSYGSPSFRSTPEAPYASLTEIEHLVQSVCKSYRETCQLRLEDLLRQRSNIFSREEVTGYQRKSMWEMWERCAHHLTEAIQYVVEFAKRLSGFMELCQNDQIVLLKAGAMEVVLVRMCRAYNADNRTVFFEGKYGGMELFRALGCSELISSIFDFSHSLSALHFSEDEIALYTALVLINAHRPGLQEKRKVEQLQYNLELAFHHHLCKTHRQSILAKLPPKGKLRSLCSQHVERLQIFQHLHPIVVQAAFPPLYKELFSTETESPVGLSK
Procedure: (§2) GFP expressing cells were gated for analysis. DMSO, Dig(dhd) (40 μM) or Dig(sal) (10 μM) was added 6-8 h after viral transduction. c, Flow cytometry of the production of IL-17a and IFN-γ by human naive cord blood T cells cultured for six days in the presence of IL-2, IL-23, and IL-1β, with various concentrations of TGF-β. DMSO, Dig(dhd), or Dig(sal) at indicated concentrations (μM) was added 16 h after cytokine addition.
(§3) Blood samples were obtained from the New York Blood Center. Mononuclear cells were prepared from buffy coats from healthy adult donors or from cord blood, using FicollPAQUE gradients. CD4^+ T cells were magnetically selected (autoMACS, Miltenyi). Adult memory CD4^+ T cell subsets were further purified as CD3^+CD4^+CD25^− CD45RO^+CCR6^+CD161^+ by cell sorting on a FACSAria (BD). Naive CD4^+ T cells were isolated from cord blood as CD3^+CD4^+CD45RA^+HLA-DR^−CD25^−DAPI^−. Memory cells were activated with anti-CD3/CD28 coated beads (1 bead/cell) in T cell media (see above) supplemented with 100 U/mL IL-2 (Peprotech), 10 ng/mL IL-1b and 10 ng/mL IL-23 (eBioscience). Naive cells were activated with anti-CD3/CD28 beads and cultured with the same cytokines, and TGF-b (0, 0.1, 1, or, 10 ng/mL) (Peprotech), in XVIVO-20 (Lonza) media. […] Naive CD4^+ T cells, cultured in XVIVO-20 media supplemented 100 U/mL IL-2 (Peprotech), were transduced with RORad-IRES-GFP or RORγt-IRES-GFP on day 1 and analyzed on day 6. GFP expressing cells were gated for analysis. DMSO or compounds were added 6-8 hours after the viral transduction.
Blood samples were obtained from the New York Blood Center. Mononuclear cells were prepared from buffy coats from healthy adult donors or from cord blood, using FicollPAQUE gradients. CD4^+ T cells were magnetically selected (autoMACS, Miltenyi). Adult memory CD4+ T cell subsets were further purified as CD3^+CD4^+CD25^−CD45RO^+CCR6^+CD161^+ by cell sorting on a FACSAria (BD). […] Naive CD4+ T cells, cultured in XVIVO-20 media supplemented with 100 U/mL IL-2 (Peprotech), were transduced with RORαd-IRES-GFP or RORγt-IRES-GFP on day 1 and analyzed on day 6. […]

[5] = test system: human Th17 cell differentiation; assay: Human Th17 cell differentiation from naive cord blood CD4+ T cells; assay type: cell-based
Procedure: as §2, §3
(§4) Blood samples were obtained from the New York Blood Center. Mononuclear cells were prepared from buffy coats from healthy adult donors or from cord blood, using FicollPAQUE gradients. CD4^+ T cells were magnetically selected (autoMACS, Miltenyi). Adult memory CD4+ T cell subsets were further purified as CD3^+CD4^+CD25^−CD45RO^+CCR6^+CD161^+ by cell sorting on a FACSAria (BD). Naive CD4^+ T cells were isolated from cord blood as CD3^+CD4^+CD45RA^+HLA^−DR^−CD25^−DAPI^−. Memory cells were activated with anti-CD3/CD28 coated beads (1 bead/cell) in T cell media (see above) supplemented with 100 U/mL IL-2 (Peprotech), 10 ng/mL IL-1β and 10 ng/mL IL-23 (eBioscience). Naive cells were activated with anti-CD3/CD28 beads and cultured with the same cytokines, and TGF-β (0, 0.1, 1, or, 10 ng/mL) (Peprotech), in XVIVO-20 (Lonza) media. […] Naive CD4+ T cells, cultured in XVIVO-20 media supplemented with 100 U/mL IL-2 (Peprotech), were transduced with RORαd-IRES-GFP or RORγt-IRES-GFP on day 1 and analyzed on day 6. GFP expressing cells were gated for analysis. DMSO or compounds were added 6-8 hours after the viral transduction.

[6] = Precipitation noted in Table 2; assay type: physicochemical
[7] = test system: IL-17a production in human CD4+ T cells; assay: Human cord blood CD4+ T cells expressing murine ATP1a1, Th17 conditions; assay type: cell-based; conditions: murine Na+/K+-ATPase α1 expressed, 10 μM
Procedure: as §4

## CC1OC(OC2C(O)CC(OC3C(O)CC(OC4CCC5(C)C(CCC6C5CC(O)C5(C)C(C7COC(=O)C7)CCC65O)C4)OC3C)OC2C)CC(O)C1O (centres unmarked) [20,22-Dihydrodigoxin]
[1]
  effect on RORγ transcriptional activity: inhibited
[2]
  cytotoxic concentration on human cells: 2.5 µM
[3]
  Na+/K+-ATPase inhibition / binding affinity: much lower binding affinity than that of digoxin

## CC1OC(OC2C(O)CC(OC3C(O)CC(OC4CCC5(C)C(CCC6C5CC(O)C5(C)C(C7=CC(=O)OC7=Cc7ccccc7O)CCC65O)C4)OC3C)OC2C)CC(O)C1O (centres unmarked) [Compound 15, Digoxin-21-salicylidene]
[1]
  IC50: < 1000 nM
[4]
  RORγt-mediated IL-17a induction (versus RORαd): selectively suppressed
[5]; FIG. 3c
  IFN-γ expression in T cells: reciprocal increases
  Th17 cell differentiation: blocked
[5]; Homo sapiens, CD4+ T, at 10 uM
  inhibition at 10 µM: ~70%
[6]
  Note: precipitate at high

## CC(=O)O[C@H]1C[C@H](O[C@H]2[C@@H](O)C[C@H](O[C@H]3[C@@H](O)C[C@H](O[C@H]4CC[C@@]5(C)[C@H](CC[C@@H]6[C@@H]5C[C@@H](O)[C@]5(C)[C@@H](C7=CC(=O)OC7)CC[C@]65O)C4)O[C@@H]3C)O[C@@H]2C)O[C@H](C)[C@H]1O[C@@H]1O[C@H](CO)[C@@H](O)[C@H](O)[C@H]1O [lanatoside C, Lanatoside C]
[1]
  effect on RORγ transcriptional activity: no significant effect
[7]
  IL-17a expression: no effect
